Measured values as given in US8173689B2 (Novartis AG, priority 2006, dated 2012).
Read-outs that look alike come from different tables or passages of the source.

Assays:
[1] = target: T1, cytoplasmic domain of the human CSF-1R (Homo sapiens, UniProt P07333); experiment: In vitro kinase assay for colony stimulating factor-1 receptor (AlphaScreen); assay type: biochemical; settings: tested at about 1 μM, read-out: CSF-1R percent inhibition
T1 construct: Recombinant protein corresponding to the cytoplasmic domain of the human CSF-1R; purchased Invitrogen Corporation, Carlsbad, Calif; PV3249
T1 sequence (P07333 539-972 limits assumed): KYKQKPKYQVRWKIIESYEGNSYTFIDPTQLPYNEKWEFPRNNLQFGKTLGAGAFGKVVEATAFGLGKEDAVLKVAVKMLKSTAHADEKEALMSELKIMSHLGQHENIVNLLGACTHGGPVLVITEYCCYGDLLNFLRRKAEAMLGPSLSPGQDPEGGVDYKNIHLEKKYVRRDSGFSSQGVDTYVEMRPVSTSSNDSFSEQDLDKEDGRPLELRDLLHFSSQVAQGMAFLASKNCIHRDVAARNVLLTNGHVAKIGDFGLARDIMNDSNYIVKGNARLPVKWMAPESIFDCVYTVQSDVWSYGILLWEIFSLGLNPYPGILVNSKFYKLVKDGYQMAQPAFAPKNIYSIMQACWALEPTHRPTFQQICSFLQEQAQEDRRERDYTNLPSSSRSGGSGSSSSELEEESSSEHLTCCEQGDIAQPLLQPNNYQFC
Outline: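 Tyrosine phosphorylation of a peptide substrate by 4 nM recombinant cytoplasmic-domain enzyme is measured at 1 μM ATP in Mn2+/Mg2+-containing Hepes buffer, pH 7.5. Detection uses PT66 AlphaScreen beads after overnight incubation.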

[2] = target: T2, full-length human CSF-1R receptor (Homo sapiens, UniProt P07333); experiment: In vitro inhibition of CSF-1R receptor tyrosine phosphorylation in transfected HEK293H cells stimulated with MCSF; assay type: cell-based; settings: HEK293-H, tested at about 1 μM, read-out: pCSF1R percent inhibition
T2 construct: transfected with the full-length human CSF-1R receptor cloned in house; expressed in transfected cells; host or cells: HEK293H (Invitrogen Cat. #11631017)
Procedure: The lysate was then transferred to total CSF-1R antibody coated 96-well plates that had already been blocked with 3% Blocker A from Mesoscale discovery (MSD) for 2 hours and washed afterwards. Lysates were incubated overnight at 4° C. and the plates were then washed 4× with MSD Tris Wash Buffer. […] The plates were read on the Sector 6000 instrument (MSD). Raw data was imported in Abase and EC50s calculated with XL-fit data analysis software.

kinase domain of cKIT = target: T3, kinase domain of cKIT (Homo sapiens, UniProt P10721); experiment: Inhibition of cKIT kinase signaling in an in vitro biochemical assay (alphascreen); settings: tested at about 1 μM, read-out: cKit percent inhibition
T3 construct: The kinase domain of cKIT was assayed in 50 mM Hepes; purchased Upstate 14-559

kinase domain of PDGFRβ = target: T4, kinase domain of PDGFRβ (Homo sapiens, UniProt P09619); experiment: Inhibition of PDGFRb kinase signaling in an in vitro biochemical assay (alphascreen); settings: tested at about 1 μM, read-out: PDGFRβ percent inhibition
T4 construct: The kinase domain of PDGFRβ was assayed in 50 mM Hepes; purchased Invitrogen P3082

[3] = tested on: MNFS60 (murine AML cells); experiment: Cell viability assay in MCSF dependent MNFS60 cells (Cell Titer Glo); assay type: cell-based; settings: Mus musculus, tested at about 1 μM, read-out: M-NFS-60 CP percent inhibition
Outline: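 Compounds were serially diluted 3-fold in DMSO to 500× final and added to cells with MCSF at 10 ng/ml final. After 72 hrs at 37° C. under 5% CO2, viable cells were quantified by CellTiter-Glo luminescence; triplicate wells gave EC50 values by curve fitting.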

T4 sequence (P09619 600-962 limits assumed): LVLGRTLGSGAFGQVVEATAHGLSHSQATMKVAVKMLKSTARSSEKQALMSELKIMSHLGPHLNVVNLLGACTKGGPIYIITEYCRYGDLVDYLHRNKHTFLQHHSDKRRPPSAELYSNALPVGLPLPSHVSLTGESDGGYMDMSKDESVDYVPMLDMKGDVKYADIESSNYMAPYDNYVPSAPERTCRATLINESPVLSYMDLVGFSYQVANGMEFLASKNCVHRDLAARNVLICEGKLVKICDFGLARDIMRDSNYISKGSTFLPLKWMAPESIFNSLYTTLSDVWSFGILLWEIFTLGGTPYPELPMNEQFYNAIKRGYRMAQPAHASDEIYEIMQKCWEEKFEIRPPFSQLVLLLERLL
T2 sequence (P07333 20-972): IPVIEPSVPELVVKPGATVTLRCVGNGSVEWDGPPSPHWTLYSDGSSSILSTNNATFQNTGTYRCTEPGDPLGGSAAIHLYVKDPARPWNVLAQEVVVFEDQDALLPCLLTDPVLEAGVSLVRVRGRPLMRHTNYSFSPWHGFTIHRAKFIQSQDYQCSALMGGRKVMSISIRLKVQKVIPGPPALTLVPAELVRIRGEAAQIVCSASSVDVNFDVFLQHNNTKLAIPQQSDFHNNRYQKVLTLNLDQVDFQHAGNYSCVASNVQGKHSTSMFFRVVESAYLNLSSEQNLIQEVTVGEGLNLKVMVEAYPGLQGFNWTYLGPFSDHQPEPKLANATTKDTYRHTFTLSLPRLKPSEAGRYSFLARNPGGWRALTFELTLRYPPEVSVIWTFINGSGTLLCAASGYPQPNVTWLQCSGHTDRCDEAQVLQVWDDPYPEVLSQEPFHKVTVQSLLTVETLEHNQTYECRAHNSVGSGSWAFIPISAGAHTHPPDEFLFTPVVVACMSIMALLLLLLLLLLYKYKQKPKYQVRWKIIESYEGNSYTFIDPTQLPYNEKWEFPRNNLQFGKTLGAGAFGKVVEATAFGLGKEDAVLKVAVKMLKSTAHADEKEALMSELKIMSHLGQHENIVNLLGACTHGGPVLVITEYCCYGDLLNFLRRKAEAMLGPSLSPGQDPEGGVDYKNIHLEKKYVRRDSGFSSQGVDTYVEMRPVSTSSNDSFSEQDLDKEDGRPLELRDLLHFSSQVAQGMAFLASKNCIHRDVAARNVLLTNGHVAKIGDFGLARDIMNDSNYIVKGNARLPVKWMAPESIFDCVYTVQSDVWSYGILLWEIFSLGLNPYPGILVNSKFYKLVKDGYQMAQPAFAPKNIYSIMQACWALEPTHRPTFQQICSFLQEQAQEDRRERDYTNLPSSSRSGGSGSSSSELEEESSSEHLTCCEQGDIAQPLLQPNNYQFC
T3 sequence (P10721 589-937 limits assumed): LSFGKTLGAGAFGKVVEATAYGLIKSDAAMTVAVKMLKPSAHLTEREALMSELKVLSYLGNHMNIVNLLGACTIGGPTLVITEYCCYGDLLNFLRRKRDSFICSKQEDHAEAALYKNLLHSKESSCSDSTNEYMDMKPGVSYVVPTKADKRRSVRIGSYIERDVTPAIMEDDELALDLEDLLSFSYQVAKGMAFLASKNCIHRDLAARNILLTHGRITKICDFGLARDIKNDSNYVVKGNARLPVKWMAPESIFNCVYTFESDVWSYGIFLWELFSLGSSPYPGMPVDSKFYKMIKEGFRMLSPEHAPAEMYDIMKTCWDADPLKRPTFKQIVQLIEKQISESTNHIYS

Structure (SMILES)	inhibition at 1 µM ([1]; compounds of Table 3)	inhibition at 1 µM ([2]; compounds of Table 3)	inhibition at 1 µM (kinase domain of cKIT; compounds of Table 3)	inhibition at 1 µM (kinase domain of PDGFRβ; compounds of Table 3)	inhibition at 1 µM ([3]; compounds of Table 3)	inhibition at 1 µM [1]	inhibition at 1 µM ([2]; HEK293H cells)	inhibition at 1 µM (kinase domain of cKIT)	inhibition at 1 µM (kinase domain of PDGFRβ)	inhibition at 1 µM ([3]; MNFS60 cells)	further results
CC(C)[C@@H](CO)Nc1nc2ccc(Oc3ccnc4ccccc34)cc2s1 [Example 244, (S)-3-methyl-2-(6-(quinolin-4-yloxy)benzo[d]thiazol-2-ylamino)butan-1-ol]	100%	85%	25%	35%	67%	–	–	–	–	–	–
C[C@H](Nc1nc2ccc(Oc3ccnc(-c4ccncc4)c3)cc2s1)C1CCCCC1 [Example 275, (S)-6-(2,4'-bipyridin-4-yloxy)-N-(1-cyclohexylethyl)benzo[d] thiazol-2-amine]	100%	94%	45%	16%	89%	–	–	–	–	–	–
CCOc1ccccc1CNc1nc2ccc(Oc3ccnc(C(=O)NC)c3)cc2o1 [Compound 96, 4-[2-(2-Ethoxy-benzylamino)-benzooxazol-6-yloxy]-pyridine-2-carboxylic acid methylamide]	–	–	–	–	–	99%	89%	33%	3%	75%	–
CNC(=O)c1cc(Oc2ccc3nc(NCc4cc(F)ccc4F)sc3c2)ccn1 [Compound 139, 4-[2-(2,5-Difluoro-benzylamino)-benzothiazol-6-yloxy]-pyridine-2-carboxylic acid methylamide]	–	–	–	–	–	100%	94%	21%	0%	48%	–
CNC(=O)c1cc(Oc2ccc3nc(N[C@H]4CCCC[C@@H]4O)oc3c2)ccn1 [Compound 52, 4-[2-((1S,2S)-2-Hydroxy-cyclohexylamino)-benzooxazol-6-yloxy]-pyridine-2-carboxylic acid methylamide]	–	–	–	–	–	100%	71%	12%	50%	56%	–
CNC(=O)c1cc(Oc2ccc3nc(N[C@H](C)C4CCCCC4)sc3c2)ccn1 [Compound 138, 4-[2-((R)-1-Cyclohexyl-ethylamino)-benzothiazol-6-yloxy]-pyridine-2-carboxylic acid methylamide]	–	–	–	–	–	99%	88%	93%	93%	100%	–
CNC(=O)c1cc(Oc2ccc3nc(NC4CCCCNC4=O)sc3c2)ccn1 (stereo not shown) [Compound 93]	100%	47%	12%	0%	23%	–	–	–	–	–	–
CCc1nc(-c2cc(Oc3ccc4nc(N[C@@H](C)C5CCCCC5)sc4c3)ccn2)[nH]c1C [Example 270, (S)-N-(1-cyclohexylethyl)-6-(2-(4-ethyl-5-methyl-1H-imidazol-2-yl)pyridin-4-yloxy)benzo[d]thiazol-2-amine]	98%	74%	21%	11%	50%	–	–	–	–	–	–
CNC(=O)c1cc(Oc2ccc3nc(NC4CCCC(C)C4)sc3c2)ccn1 (stereo not shown) [Compound 136, 4-[2-(3-Methyl-cyclohexyl-amino)-benzothiazol-6-yloxy]-pyridine-2-carboxylic acid methylamide]	–	–	–	–	–	100%	97%	88%	84%	100%	–
O[C@@H]1CCCC[C@H]1Nc1nc2ccc(Oc3ccnc(-c4ccc(F)nc4)c3)cc2s1 [Cmpd 173, (1R,2R)-2-(6-(6'-fluoro-2,3'-bipyridin-4-yloxy)benzo[d]thiazol-2-ylamino)cyclohexanol]	100%	81%	18%	8%	52%	–	–	–	–	–	–
CC(C)CCNc1nc2ccc(Oc3ccnc(-c4cnn(C)c4)c3)cc2s1 [Example 365, N-isopentyl-6-(2-(1-methyl-1H-pyrazol-4-yl)pyridin-4-yloxy)benzo[d]thiazol-2-amine]	–	–	–	–	–	100%	97%	100%	79%	–	inhibition at 1 µM ([3]; MCSF dependent MNFS60 cells): 100%
CNC(=O)c1cc(Oc2ccc3nc(NCc4ccc(Cl)cc4Cl)sc3c2)ccn1 [Compound 130, 4-[2-(2,4-Dichloro-benzylamino)-benzothiazol-6-yloxy]-pyridine-2-carboxylic acid methylamide]	–	–	–	–	–	99%	85%	87%	25%	72%	–
CNC(=O)c1cc(Oc2ccc3nc(N[C@H]4c5ccccc5C[C@H]4O)sc3c2)ccn1 [Example 321, 4-(2-((1S,2R)-2-hydroxy-2,3-dihydro-1H-inden-1-ylamino)benzo[d]thiazol-6-yloxy)-N-methylpicolinamide]	–	–	–	–	–	100%	97%	52%	41%	–	inhibition at 1 µM ([3]; MCSF dependent MNFS60 cells): 82%
CNC(=O)c1cc(Oc2ccc3nc(Nc4ccccc4-n4ccnc4C)oc3c2)ccn1 [Compound 47, 4-{2-[2-(2-Methyl-imidazol-1-yl)-phenylamino]-benzooxazol-6-yloxy}-pyridine-2-carboxylic acid methylamide]	100%	83%	0%	4%	55%	13%	–	–	12%	–	inhibition at 1 µM ([1]; compounds of Table 4): 100%; inhibition at 1 µM ([2]; compounds of Table 4): 79%; inhibition at 1 µM (kinase domain of cKIT; compounds of Table 4): 55%; inhibition at 1 µM (kinase domain of PDGFRβ; compounds of Table 4): 31%; inhibition at 1 µM ([3]; compounds of Table 4): 58%
c1cc(Oc2ccc3nc(NCC4CCCCC4)sc3c2)cc(-c2ncco2)n1 [Example 342, N-(cyclohexylmethyl)-6-(2-(oxazol-2-yl)pyridin-4-yloxy)benzo[d]thiazol-2-amine]	–	–	–	–	–	100%	87%	84%	61%	–	inhibition at 1 µM ([3]; MCSF dependent MNFS60 cells): 75%
CNC(=O)c1cc(Oc2ccc3nc(NCc4c(OC)cccc4OC)oc3c2)ccn1 [Compound 84, 4-[2-(2,6-Dimethoxy-benzyl-amino)-benzooxazol-6-yloxy]-pyridine-2-carboxylic acid methylamide]	–	–	–	–	–	99%	44%	12%	0%	32%	–
O[C@@H]1CCCC[C@H]1Nc1nc2ccc(Oc3ccnc(-c4cscn4)c3)cc2s1 [Compound 159]	100%	96%	29%	23%	98%	–	–	–	–	–	–
O[C@@H]1CCCC[C@H]1Nc1nc2ccc(Oc3ccnc(-c4ncco4)c3)cc2s1 [Example 372, (1R,2R)-2-(6-(2-(oxazol-2-yl)pyridin-4-yloxy)benzo[d]thiazol-2-ylamino)cyclohexanol]	–	–	–	–	–	100%	88%	21%	8%	–	inhibition at 1 µM ([3]; MCSF dependent MNFS60 cells): 75%
